Target: T1, MyD88^TIR (Homo sapiens, UniProt Q99836)
T1 construct: MyD88 (residues 148–296); 6xHis; made in house; host or cells: E. coli BL21 (DE3)
Assay: T‐Surf phage library (P8 and P3) selection against MyD88^TIR, four rounds, NGS read counts
Assay type: binding
Details: for P8_MyD88 Rank (after) / P8_MyD88 Rank (before): P8 library; for P3_MyD88 Rank (after) / P3_MyD88 Rank (before): P3 library; for Population: 4th round of selection against MyD88 TIR, share of NGS reads
Outline: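 P8 and P3 T‐Surf libraries panned against plate-coated TIR domains (5 µg mL^−1), 1 h binding at RT, acid elution and TG1/helper-phage amplification per round. After four rounds, pools were PCR-barcoded and sequenced (NovaSeq, 100 bp paired-end, Phred ≥30); peptides ranked by read counts.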

[1] = P8_MyD88: rank by count after grouping
[2] = P8_MyD88: rank by count before grouping
[3] = selection against MyD88, rank after grouping
[4] = selection against MyD88, rank before grouping
[5] = 4R selection against MyD88, rank after grouping
[6] = 4R selection against MyD88, rank before grouping
[7] = P8_MyD88: rank by NGS read count after grouping
[8] = P8_MyD88: rank by NGS read count before grouping
[9] = selection against MyD88, rank by count after grouping
[10] = selection against MyD88, rank by count before grouping
[11] = P8_MyD88 pool: P8 T-Surf phage library
[12] = P3_MyD88: rank by count after grouping
[13] = P3_MyD88: rank by count before grouping
[14] = P3_MyD88 pool: P3 T-Surf phage library
[15] = selection against MyD88 TIR, rank by count after grouping
[16] = selection against MyD88 TIR, rank by count before grouping

T1 sequence (Q99836 148-296): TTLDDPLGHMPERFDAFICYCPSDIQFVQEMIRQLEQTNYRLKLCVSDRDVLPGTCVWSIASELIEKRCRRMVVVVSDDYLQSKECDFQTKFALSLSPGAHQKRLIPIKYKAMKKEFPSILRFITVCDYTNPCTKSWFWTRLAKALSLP

Substance: YASSSWALDELLQILHARELF
- Rank (after) [1]: 175
- Rank (before) [2]: 207

Substance: WALDELLKFCMRMKP
- P8_MyD88 Rank (after) [3]: 520
- P8_MyD88 Rank (before) [4]: 1471

Substance: GRYDELFMTETDERKC
- P3_MyD88 Rank (after) [5]: 603
- P3_MyD88 Rank (before) [6]: 1852

Substance: YELDFSHFCCLMARR
- Rank (after) [7]: 929
- Rank (before) [8]: 1947

Substance: PQDLDWFYERLVSQM
- P8_MyD88 Rank (after) [9]: 716
- P8_MyD88 Rank (before) [10]: 3426

Substance: LKWGDPYLCSKLRYAM
- P3_MyD88 Rank (after) [9]: 726
- P3_MyD88 Rank (before) [10]: 2442

Substance: YAFTGHLHRIWCSVA
- P3_MyD88 Rank (after) [5]: 581
- P3_MyD88 Rank (before) [6]: 1523

Substance: KEVEGWRCADQSGEP
- P3_MyD88 Rank (after) [5]: 666
- P3_MyD88 Rank (before) [6]: 3653

Substance: DYTSSPWALEELLKIM
- Rank (after) [1]: 159
- Rank (before) [2]: 171
- Population [11]: 0.00809%

Substance: DHHLDLPRGKAIKPAILR
- Rank (after) [12]: 162
- Rank (before) [13]: 2019

Substance: PQDLEWFYERGEPDS
- P8_MyD88 Rank (after) [9]: 751
- P8_MyD88 Rank (before) [10]: 3445

Substance: WALAELLQLLHARELF
- Rank (after) [1]: 395
- Rank (before) [2]: 1410

Substance: DPLGQVRLSFRLFRQI
- P8_MyD88 Rank (after) [9]: 748
- P8_MyD88 Rank (before) [10]: 2610

Substance: SSFREGL*RLLELSKK
- Population [14]: 0.00466%

Substance: DHHLDLPRGKEIKPELLG
- P3_MyD88 Rank (after) [15]: 245
- P3_MyD88 Rank (before) [16]: 2038

Substance: LVAHEISKMLKIFETI
- P3_MyD88 Rank (after) [9]: 681
- P3_MyD88 Rank (before) [10]: 2284

Substance: LVAHEISKKMKIFETI
- Population [14]: 0.00466%

Substance: YLKWGYPWFWSKLRYAM
- Rank (after) [12]: 110
- Rank (before) [13]: 575

Substance: DPQDLARSYERLVRLF
- P8_MyD88 Rank (after) [5]: 610
- P8_MyD88 Rank (before) [6]: 2690

Substance: DPQDLAWFSERLVSQF
- P8_MyD88 Rank (after) [3]: 551
- P8_MyD88 Rank (before) [4]: 2728

Substance: YNLAHYLYVSMRASGI
- P8_MyD88 Rank (after) [9]: 715
- P8_MyD88 Rank (before) [10]: 2132

Substance: YTALTNSGFSEENLF
- P3_MyD88 Rank (after) [5]: 668
- P3_MyD88 Rank (before) [6]: 1683

Substance: YYLDPSHLRKQTGSLAKAFA
- P3_MyD88 Rank (after) [15]: 224
- P3_MyD88 Rank (before) [16]: 1463

Substance: DPQDLVWFYESLVSLF
- P8_MyD88 Rank (after) [15]: 263
- P8_MyD88 Rank (before) [16]: 2714

Substance: WDFASNMEQFWIVCI
- P8_MyD88 Rank (after) [9]: 706
- P8_MyD88 Rank (before) [10]: 1619

Substance: EWIRTAASGAERTSA
- Rank (after) [12]: 388
- Rank (before) [13]: 2178

Substance: YITWFEDFQQILLFWI
- Rank (after) [7]: 924
- Rank (before) [8]: 2117

Substance: DWEWDYRLPNLEGPPG
- Rank (after) [7]: 891
- Rank (before) [8]: 2486

Substance: VANILGYHWFDWEYFVVIGD
- Rank (after) [7]: 875
- Rank (before) [8]: 2171

Substance: YTALNNMGFHTFRGND
- P3_MyD88 Rank (after) [9]: 705
- P3_MyD88 Rank (before) [10]: 1627

Substance: WDFASSSWALDELLRILY
- P8_MyD88 Rank (after) [3]: 550
- P8_MyD88 Rank (before) [4]: 1585

Substance: DPQDLECVYERLVSLF
- Rank (after) [7]: 1006
- Rank (before) [8]: 2846

Substance: SENYATSTWAPDELVR
- P3_MyD88 Rank (after) [3]: 496
- P3_MyD88 Rank (before) [4]: 2998

Substance: IVQEQDGFWVRLIEAL
- P8_MyD88 Rank (after) [5]: 616
- P8_MyD88 Rank (before) [6]: 3611

Substance: GFLYHAFAREGIKIFM
- Rank (after) [12]: 124
- Rank (before) [13]: 1793

Substance: FDYELQQSLFHALIMR
- P8_MyD88 Rank (after) [15]: 213
- P8_MyD88 Rank (before) [16]: 296

Substance: YASSSWYLDELLQIA
- Rank (after) [1]: 402
- Rank (before) [2]: 1870

Substance: CARDELLQILHARELF
- Rank (after) [7]: 876
- Rank (before) [8]: 1349

Substance: SSYRQGLWRLLELSKK
- P3_MyD88 Rank (after) [3]: 485
- P3_MyD88 Rank (before) [4]: 3267

Substance: FLSYREGLWRLLELSKK
- P3_MyD88 Rank (after) [3]: 498
- P3_MyD88 Rank (before) [4]: 1376

Substance: LSRVPSVHEFRGFVGV
- P3_MyD88 Rank (after) [3]: 573
- P3_MyD88 Rank (before) [4]: 2392

Substance: YPQDLDWFYERLVSQF
- P8_MyD88 Rank (after) [9]: 719
- P8_MyD88 Rank (before) [10]: 2097

Substance: RISAFHQQLLMALKTQ
- P3_MyD88 Rank (after) [9]: 706
- P3_MyD88 Rank (before) [10]: 2609

Substance: GFLYQAFAREGLWRLLELSKK
- Rank (after) [12]: 172
- Rank (before) [13]: 912

Substance: LVAHELSNKMKSFATI
- Rank (after) [12]: 386
- Rank (before) [13]: 2276

Substance: SENYATRPWAPDELVL
- P3_MyD88 Rank (after) [5]: 673
- P3_MyD88 Rank (before) [6]: 2999

Substance: LGYHWFDWVYFVGIED
- P8_MyD88 Rank (after) [3]: 523
- P8_MyD88 Rank (before) [4]: 3329

Substance: RISAFHQQLVMALKERLP
- P3_MyD88 Rank (after) [15]: 263
- P3_MyD88 Rank (before) [16]: 1105

Substance: DPQDLEWNFERPVSLF
- Rank (after) [7]: 972
- Rank (before) [8]: 2856

Substance: DPQDLDWFYEHLVSLL
- Rank (after) [1]: 114
- Rank (before) [2]: 570

Substance: LGYHWIDWEYFVGIEDPIT
- P8_MyD88 Rank (after) [5]: 660
- P8_MyD88 Rank (before) [6]: 3261

Substance: YAFTGHLCRCLVLRGA
- P3_MyD88 Rank (after) [3]: 506
- P3_MyD88 Rank (before) [4]: 1489

Substance: KEVEGWRDALTKVATI
- Population [14]: 0.0032%

Substance: YNFISQLYDALQRNRI
- P3_MyD88 Rank (after) [9]: 710
- P3_MyD88 Rank (before) [10]: 1743

Substance: YTALTYSGFHTFRGND
- P3_MyD88 Rank (after) [5]: 645
- P3_MyD88 Rank (before) [6]: 1641

Substance: DPQDLQCSSERLVSLI
- P8_MyD88 Rank (after) [9]: 691
- P8_MyD88 Rank (before) [10]: 2906

Substance: DPQDLGWFYERLLSLF
- Rank (after) [1]: 441
- Rank (before) [2]: 2722

Substance: SSFRERLCRLLELSKK
- P3_MyD88 Rank (after) [15]: 235
- P3_MyD88 Rank (before) [16]: 3242

Substance: LGYHGIDWVYFGGIED
- P8_MyD88 Rank (after) [3]: 565
- P8_MyD88 Rank (before) [4]: 3316

Substance: DHHLDLPRGKAIKPEILG
- P8_MyD88 Rank (after) [9]: 757
- P8_MyD88 Rank (before) [10]: 3049

Substance: DPQDLDWFYERLFSQT
- P8_MyD88 Rank (after) [15]: 269
- P8_MyD88 Rank (before) [16]: 2858

Substance: YLRADDNDYYWVTHVLLRHL
- Rank (after) [7]: 983
- Rank (before) [8]: 2070

Substance: TSTWALDELLRILY
- Rank (after) [7]: 912
- Rank (before) [8]: 3824

Substance: DSQSSLLKGEADLVGQ
- P3_MyD88 Rank (after) [9]: 736
- P3_MyD88 Rank (before) [10]: 2071

Substance: SSFRECLWRLEELSKK
- Rank (after) [12]: 457
- Rank (before) [13]: 3136

Substance: SSYRESLRRLPALSKK
- P3_MyD88 Rank (after) [9]: 739
- P3_MyD88 Rank (before) [10]: 3266

Substance: DPQELVWRYERLVSLF
- Rank (after) [7]: 962
- Rank (before) [8]: 3010

Substance: DPQDLDWVYERLVSLI
- P8_MyD88 Rank (after) [15]: 271
- P8_MyD88 Rank (before) [16]: 2825

Substance: WALDELLQILQARELS
- P8_MyD88 Rank (after) [9]: 721
- P8_MyD88 Rank (before) [10]: 1462

Substance: WDYASNMEQFWDPLYY
- P8_MyD88 Rank (after) [5]: 675
- P8_MyD88 Rank (before) [6]: 1642

Substance: HQLSVDIQGYALKAGV
- P3_MyD88 Rank (after) [9]: 679
- P3_MyD88 Rank (before) [10]: 2807

Substance: YTALTNSGFPTFRDHD
- Rank (after) [12]: 171
- Rank (before) [13]: 1662

Substance: SSFREGLWRLLKLNKK
- P3_MyD88 Rank (after) [15]: 266
- P3_MyD88 Rank (before) [16]: 3181

Substance: SSFRERLWRPVALSKK
- P3_MyD88 Rank (after) [3]: 493
- P3_MyD88 Rank (before) [4]: 3227

Substance: LKVESWHQAREKAGKL
- Rank (after) [12]: 400
- Rank (before) [13]: 2518

Substance: LGYHWIDWEYFVGSED
- Population [11]: 0.00655%

Substance: DIVAYVMQKLMKHQVF
- Rank (after) [1]: 154
- Rank (before) [2]: 169
- Population [11]: 0.00848%

From PMC11714206, “Massively Parallel Screening of Toll/Interleukin‐1 Receptor (TIR)‐Derived Peptides Reveals Multiple Toll‐Like Receptors (TLRs)‐Targeting Immunomodulatory Peptides” (Advanced Science, 2024)
